We go through 1 substance from US20100267629A1, “Enterostatin as Therapeutic Agent for Hypoglycemia” (Board of Supervisors of Louisiana State University and …, priority 2006, published 2010).

The target in assay [1] is T1, Neuropeptide Y1 receptors (Homo sapiens, UniProt P25929).
T1 sequence (P25929 1-384): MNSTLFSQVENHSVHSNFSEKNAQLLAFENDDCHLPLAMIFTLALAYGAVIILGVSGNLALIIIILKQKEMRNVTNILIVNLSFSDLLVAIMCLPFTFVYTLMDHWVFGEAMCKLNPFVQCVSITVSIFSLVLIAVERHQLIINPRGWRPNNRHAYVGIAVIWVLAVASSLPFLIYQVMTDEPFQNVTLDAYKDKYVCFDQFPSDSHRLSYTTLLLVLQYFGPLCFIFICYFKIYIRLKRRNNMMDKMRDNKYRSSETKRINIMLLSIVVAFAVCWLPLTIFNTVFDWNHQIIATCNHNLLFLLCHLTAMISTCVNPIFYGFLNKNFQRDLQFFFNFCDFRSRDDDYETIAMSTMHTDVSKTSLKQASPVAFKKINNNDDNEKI
To be noted: cited from earlier work.

The subject of assay [2] is C57B1/6 male mice. Put plainly: Glucose tolerance test. The assay is classed as in vivo, mouse. To be noted: 18 h fasted, vs control. The method, then: (§1) Animals: C57B1/6 male mice were purchased from The Jackson Laboratory (Bar Harbor, Me.) at 6 weeks of age. The mice were initially housed in groups of three in acrylic cages in a room with a 12-hour light/dark cycle and with controlled temperature (22 to 23° C.) and with free access to water. The mice were fed a high fat diet (4.78 kcal/g, 56% energy as fat; Research Diets Inc, Brunswick, N.J.). The composition of the diet has been previously described (15). Body weights were measured three time per week. At 8 weeks of age, the mice were switched to single housing.
(§2) Peptide Injections: Enterostatin was dissolved in 0.1 ml saline (0.9% NaCl w/v), and given as a single dose of either 5 μg or 25 μg/mouse. Either enterostatin or saline (control) was injected intraperitoneally. In the experiments involving insulin, insulin (0.75 mU/g body weight) or saline (0.1 ml/10 g body weight; control) was injected intraperitoneally.
Enterostatin Effect on Glucose Tolerance Tests: For glucose tolerance tests, mice were fasted overnight (18 hours). Enterostatin (5 or 25 ug/mouse in 0.1 ml saline vehicle) or saline vehicle was injected intraperitoneally (ip) 20 minutes before an intraperitoneal injection of glucose (1.0 mg/gm body weight). Blood samples were taken from the tail vein immediately before glucose administration, and then at 15, 30, 45 and 60 min after glucose injection. […]

The next assay has as its system islet cells. The conditions noted are these: cited from earlier work.
Another assay relates to AMPK. Put plainly: In vivo AMPK activity, Western blot of liver and hypothalamus. Also on record: species or system mouse. Here is the method: A separate set of mice (n=6/group) were fasted overnight (18 hours) before injection with either saline vehicle (0.1 ml) or enterostatin (5 or 25 ug/mouse) intraperitoneally. The mice were sacrificed by cervical dislocation either at 30 min (certain enterostatin-treated groups) or 60 min (both certain enterostatin- and vehicle-treated groups) after the injection. The tissues of liver and hypothalamus were rapidly dissected and frozen in liquid nitrogen. The tissues were stored at −80 C before processing for AMPK activity. For AMPK activity, the tissues were unfrozen, the cells lysed, and the cytosolic proteins subjected to Western blot analysis for AMPK and pAMPK activity.
(A western blot detects proteins with antibodies after separation by electrophoresis.)

The target of another assay is kappa-opioid receptors (Homo sapiens, UniProt P41145). To be noted: cited from earlier work.
Sequence of kappa-opioid receptors (P41145 whole entry): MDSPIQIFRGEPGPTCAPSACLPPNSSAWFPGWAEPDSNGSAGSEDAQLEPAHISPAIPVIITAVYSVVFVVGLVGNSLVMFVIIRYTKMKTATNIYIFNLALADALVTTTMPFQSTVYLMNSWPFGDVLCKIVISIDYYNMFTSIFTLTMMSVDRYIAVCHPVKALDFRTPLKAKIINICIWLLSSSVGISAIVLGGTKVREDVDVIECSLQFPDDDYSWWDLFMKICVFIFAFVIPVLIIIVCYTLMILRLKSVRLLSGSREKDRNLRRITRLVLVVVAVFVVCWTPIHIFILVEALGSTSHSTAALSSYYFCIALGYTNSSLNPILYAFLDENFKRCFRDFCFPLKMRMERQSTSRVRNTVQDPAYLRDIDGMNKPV
The target of assay [3] is T2, cholecystokinin A receptors (Homo sapiens, UniProt P32238).
T2 sequence (P32238 1-428): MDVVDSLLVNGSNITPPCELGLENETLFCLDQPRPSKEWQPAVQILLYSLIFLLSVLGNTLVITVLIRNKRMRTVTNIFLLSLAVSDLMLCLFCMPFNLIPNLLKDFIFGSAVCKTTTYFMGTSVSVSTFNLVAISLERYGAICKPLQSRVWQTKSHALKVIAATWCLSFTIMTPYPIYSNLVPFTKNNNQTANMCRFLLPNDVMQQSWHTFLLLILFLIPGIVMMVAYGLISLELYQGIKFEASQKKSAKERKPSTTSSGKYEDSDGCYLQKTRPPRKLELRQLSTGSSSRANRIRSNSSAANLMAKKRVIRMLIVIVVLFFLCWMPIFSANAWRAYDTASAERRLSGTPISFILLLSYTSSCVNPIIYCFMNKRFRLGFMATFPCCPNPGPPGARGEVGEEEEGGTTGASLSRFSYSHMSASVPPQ
The conditions noted are these: cited from earlier work.

Assay [4] relates to C57B1/6 male mice. The assay can be described thus: Fasting blood glucose after enterostatin injection. In kind it is in vivo, mouse. Here is the method: as §1, §2
Enterostatin Effect on Fasting Blood Glucose. To directly test the effect of enterostatin on blood glucose, mice were fasted for 18 hours, and enterostatin (25 μg/mouse) or 0.1 ml saline vehicle was injected intraperitoneally at zero time. Blood samples were taken from the tail vein at 15, 30, 45 and 60 min after enterostatin injection. The blood samples were assayed for glucose using a glucometer.

Assay [5] deals with C57B1/6 male mice. The assay can be described thus: Blood glucose response to insulin. In kind it is in vivo, mouse. Here is the method:
as §1, §2
Enterostatin Effect on Blood Glucose Response to Insulin. To test the effect of enterostatin on the blood glucose response to exogenous insulin, mice were fasted for 4 hours, and insulin (0.75 mU/gm body weight) or saline (0.1 ml/10 gm body weight) was injected intraperitoneally at time zero. Enterostatin (5 or 25 ug/mouse in 0.1 ml saline vehicle) or saline vehicle was also injected intraperitoneally (ip) at time zero. Blood samples were taken from the tail vein immediately before the injections, and then at 15, 30, 45 and 60 minutes afterwards. The samples were assayed for glucose on a glucometer (Ascencia Elite XL, Bayer, Pittsburgh, Pa.).

With “Enterostatin: aminoterminal pentapeptide of procolipase released when procolipase is converted into colipase (VPDPR; printed: Val-Pro-Asp-Pro-Arg)”, the Binding result (in assay [1]; with kappa-opioid receptors; in assay [3]) was “not to bind” each time. Besides, the “Clearance of blood glucose” value with C57B1/6 male mice [2] (5 μg/mouse ip 20 min before glucose 1.0 mg/gm) and in the assay on C57B1/6 male mice [2] (25 μg/mouse ip 20 min before glucose 1.0 mg/gm) was “no differences” throughout. Moreover, the “Insulin secretion stimulated by glybenclamide” value in the assay with islet cells (glybenclamide 5.0 and 10 μM) was “inhibited insulin secretion”. In addition, in the assay on islet cells (increase produced by U50,488 100 nM), the “Intracellular cyclic AMP content” value is on record as “reduced the increase in intracellular cyclic AMP content”. Besides, the Insulin secretion result in the assay on islet cells (islets, 16.7 mM glucose, 10^−9 to 10^−5 M, dose-dependent) was “inhibited insulin secretion”. Further, the “Doses inhibiting insulin secretion” value in the assay with islet cells (isolated pancreatic islets) is recorded as 10^−10 to 10^−6 M. Further, in the assay with islet cells (kappa-opioid agonist U50,488 100 nM), the “Insulin secretion stimulated by U50,488” value is “inhibited insulin secretion”. The “Insulin secretion stimulated by TPA” value in the assay with islet cells (phorbol 12-myristate-13-acetate 50 and 100 nM) is on record as “inhibited insulin secretion”. The “Hypothalamic pAMPK” value with AMPK (5 or 25 μg/mouse ip) was “unaltered”. Further, the “Total AMPK” value in the assay on AMPK (5 or 25 μg/mouse ip) is “unaffected”. Further, the “Liver pAMPK levels” value in the assay on AMPK (30 and 60 min after ip injection, even at lower dose (5 μg/mouse)) was “reduced”. Also, the “Blood glucose levels compared to saline control” value with C57B1/6 male mice [4] (25 μg/mouse ip, 18 h fasted) is given as “rapid increase in blood glucose levels”. Also, the “Increase in blood glucose versus saline vehicle” value with C57B1/6 male mice [4] (25 μg/mouse ip, at 15 and 30 min) was “significantly greater”. Besides, in the assay with C57B1/6 male mice [4] (injection into mice), the “Duration of raised glucose levels after injection” value is reported as “remained high for up to an hour after injection”. For the same substance, the “Time to increase in blood glucose levels after injection” value with C57B1/6 male mice [4] (injection into mice) is no more than 15 min. The “Blood glucose level versus zero-time level after insulin” value is recorded as “had not returned to zero-time levels” with C57B1/6 male mice [5] (5 μg/mouse ip, at 60 min) and “remained below the zero-time level” in the assay with C57B1/6 male mice [5] (higher dose (25 μg/mouse) ip, 45 to 60 min). The “Time for which blood glucose is increased after injection” value with C57B1/6 male mice [5] (conclusion from insulin response test) was no less than 30 min. Further, in the assay with C57B1/6 male mice [5] (higher dose (25 μg/mouse) ip), the “Delay of initial fall in blood glucose in response to insulin” value was 30 min.
